Measured values: ChEMBL document CHEMBL1201862, “PubChem BioAssay data set” (2004)
The source made the active and inactive calls.

What was measured:
[1] = target: FAD-linked sulfhydryl oxidase ALR (Homo sapiens, UniProt P55789); assay: inhibitors of human ALR sulfhydryl oxidase, dose response, biochemical, H2O2 detection, luminescence, cherry-pick (AID 493248)
[2] = tested on: Streptococcus sp. 'group A'; assay: growth inhibition of control SK(-) GAS strain, dose response, counter-screen for streptokinase expression inhibitor project, luminescence, kanamycin, BacTiterGlo, confirmation (AID 1900); format: functional, organism-based
[3] = target: T1, Streptokinase A (Streptococcus pyogenes serotype M1, UniProt P10520); assay: S. pyogenes streptokinase expression inhibitors, potency, dose response, plasminogen activation absorbance, OD405 (AID 1914); format: functional, Streptococcus pyogenes M1 GAS;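 note: secreted streptokinase activity via plasminogen activation per viability signal from cell pellet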
T1 sequence (P10520 whole entry): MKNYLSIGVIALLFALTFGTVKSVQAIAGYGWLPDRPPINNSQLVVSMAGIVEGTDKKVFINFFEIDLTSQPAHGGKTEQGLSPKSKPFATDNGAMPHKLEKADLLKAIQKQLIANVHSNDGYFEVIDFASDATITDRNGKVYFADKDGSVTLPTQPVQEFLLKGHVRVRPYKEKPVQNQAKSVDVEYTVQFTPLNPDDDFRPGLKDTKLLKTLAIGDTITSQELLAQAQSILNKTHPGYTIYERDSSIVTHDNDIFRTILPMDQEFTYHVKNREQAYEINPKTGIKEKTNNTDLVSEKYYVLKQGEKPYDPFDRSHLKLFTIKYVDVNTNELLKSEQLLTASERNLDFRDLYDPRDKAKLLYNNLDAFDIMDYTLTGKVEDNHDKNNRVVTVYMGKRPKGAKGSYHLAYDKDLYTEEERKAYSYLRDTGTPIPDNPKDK

[4] = growth suppression of PTEN-null colon cells, dose response, cell-based, HCT116 PTEN knockout (AID 1047); format: functional;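 note: HCT116 colon tumor cells with PTEN knocked out; cells exposed to compound for 60 hours before readout; potency for loss of cell viability measured by luminescence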
[5] = growth suppression of beta-catenin-knockout colon cells, dose response, cell-based, HCT116, human colon tumor (AID 1045); format: functional;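 note: HCT116 colon tumor cells with beta catenin knocked out; cells exposed to compound for 60 hours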
[6] = tested on: Streptococcus; assay: Group A Streptococcus viability loss, dose response, counter-screen for streptokinase expression inhibitor project, luminescence, BacTiterGlo (AID 1915); format: functional, organism-based;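 note: potency for reduction of bacterial viability or growth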
[7] = target: T2, Rac GTPase-activating protein 1 (Homo sapiens, UniProt Q9H0H5); assay: MgcRacGAP GTPase-activating activity inhibitors, confirmation, biochemical, ADP Hunter fluorescence, primary and confirmatory (AID 624330); format: functional
T2 sequence (Q9H0H5 whole entry): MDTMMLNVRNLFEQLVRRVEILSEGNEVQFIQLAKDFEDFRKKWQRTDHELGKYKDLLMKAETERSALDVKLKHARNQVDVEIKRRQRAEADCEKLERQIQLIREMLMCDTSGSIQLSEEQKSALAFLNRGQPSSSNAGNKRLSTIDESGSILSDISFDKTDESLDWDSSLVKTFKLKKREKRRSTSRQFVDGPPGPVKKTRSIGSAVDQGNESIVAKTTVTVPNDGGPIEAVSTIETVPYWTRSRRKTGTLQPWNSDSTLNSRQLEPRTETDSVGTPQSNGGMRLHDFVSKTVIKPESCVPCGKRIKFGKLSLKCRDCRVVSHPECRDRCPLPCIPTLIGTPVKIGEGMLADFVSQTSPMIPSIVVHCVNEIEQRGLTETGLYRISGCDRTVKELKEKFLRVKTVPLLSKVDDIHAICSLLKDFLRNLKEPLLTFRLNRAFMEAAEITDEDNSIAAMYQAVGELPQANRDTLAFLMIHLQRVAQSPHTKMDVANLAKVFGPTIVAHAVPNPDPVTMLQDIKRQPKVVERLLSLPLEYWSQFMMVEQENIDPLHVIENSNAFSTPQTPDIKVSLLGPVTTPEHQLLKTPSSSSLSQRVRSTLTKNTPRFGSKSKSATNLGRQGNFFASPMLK

[8] = LGR2 antagonists, dose response, cell-based, HEK293, CRE-luciferase reporter, cherry pick, set 2 (AID 743343); format: functional;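 note: transfected cells were stimulated with diluted bursicon conditioned medium after compound addition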
[9] = MC4R antagonists, dose response, counter-screen for LGR2 antagonist project, cell-based, plate reader, cherry pick (AID 743444); format: functional;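 note: transfected HEK 293 cells stimulated with alpha-MSH peptide; potency of inhibitors of the alpha-MSH evoked signal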
[10] = target: T3, Corticotropin-releasing factor receptor 2/Corticotropin-releasing factor-binding protein (Homo sapiens, UniProt P24387+Q13324); assay: activators of CRF receptor 2 with binding protein – uHTS hits, confirmation (AID 602473); format: functional; settings: read-out: EC50_Mean
T3 sequence (Q13324 whole entry): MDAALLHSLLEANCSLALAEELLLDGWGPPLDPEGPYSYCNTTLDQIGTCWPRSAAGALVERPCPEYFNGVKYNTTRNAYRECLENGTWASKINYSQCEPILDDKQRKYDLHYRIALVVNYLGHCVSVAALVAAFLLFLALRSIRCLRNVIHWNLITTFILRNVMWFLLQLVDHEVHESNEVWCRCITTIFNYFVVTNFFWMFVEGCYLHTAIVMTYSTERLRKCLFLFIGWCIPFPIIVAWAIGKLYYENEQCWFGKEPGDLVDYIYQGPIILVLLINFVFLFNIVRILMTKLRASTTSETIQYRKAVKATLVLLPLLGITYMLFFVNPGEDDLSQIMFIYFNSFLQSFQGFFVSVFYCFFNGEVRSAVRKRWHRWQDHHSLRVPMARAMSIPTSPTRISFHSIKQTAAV
T3 sequence (P24387 whole entry): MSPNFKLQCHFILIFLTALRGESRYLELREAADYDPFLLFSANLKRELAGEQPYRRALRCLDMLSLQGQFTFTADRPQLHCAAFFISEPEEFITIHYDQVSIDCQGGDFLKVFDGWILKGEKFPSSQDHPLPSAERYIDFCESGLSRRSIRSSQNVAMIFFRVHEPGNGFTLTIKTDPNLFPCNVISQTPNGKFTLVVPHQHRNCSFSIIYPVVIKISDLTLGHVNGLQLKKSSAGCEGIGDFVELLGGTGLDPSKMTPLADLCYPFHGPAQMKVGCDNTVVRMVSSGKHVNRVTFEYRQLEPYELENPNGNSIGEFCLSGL

[11] = NIH-3T3 fibroblast cytotoxicity, dose response, cytotoxicity control, cell-based, fluorescence, Alamar Blue, secondary assay (AID 2327); format: functional;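 note: NIH-3T3 mouse fibroblasts cultured with fluconazole at 8 µg/mL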
[12] = C. albicans growth with fluconazole, confirmation, fluorescence, retest (AID 2467); format: functional, cell-based
[13] = target: T4, Ubiquitin-conjugating enzyme E2 N (Homo sapiens, UniProt P61088); format: functional;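 note: Dose-response confirmation in a TR-FRET assay detecting UBC13-driven polyubiquitin chain formation, inhibition measured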
T4 sequence (P61088 whole entry): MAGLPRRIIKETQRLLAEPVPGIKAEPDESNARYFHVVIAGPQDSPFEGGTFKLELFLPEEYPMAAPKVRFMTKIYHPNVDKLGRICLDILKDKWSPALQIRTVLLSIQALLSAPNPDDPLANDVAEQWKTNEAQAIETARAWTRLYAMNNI

[14] = tested on: INS1; assay: beta cell apoptosis inhibitors, cytokine rescue, dose response, luminescence, retest (AID 449756); format: functional, cell-based; settings: Rattus norvegicus;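 note: cell death triggered by IL-1 beta plus TNF-alpha plus IFN-gamma mixture; protective hits raise ATP signal compared with cytokine alone wells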
[15] = microbe, parasite or virus in culture; format: functional; settings: Mycobacterium tuberculosis
[16] = HEp-2 cell cytotoxicity, dose response, cytotoxicity control for RSV inhibitor project, HTS (AID 2410); format: functional; settings: human respiratory syncytial virus
[17] = tested on: H9c2; assay: cells; format: functional, cell-based; settings: Rattus norvegicus, H9c2, Myocardium;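 note: confirmatory concentration-response retest of ultra-high-throughput screening hits for modulation of myocardial damage; cell death induced by hydrogen peroxide oxidative stress; compound pretreatment for 60 min then peroxide exposure for 2 h; potency is for protecting the cells against peroxide damage rather than for killing them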
[18] = target: Cytochrome P450 2D6 (Homo sapiens, UniProt P10635);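 note: CYP2D6 member of a cytochrome P450 panel assay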
Chain of Cytochrome P450 2D6 (P10635 whole entry): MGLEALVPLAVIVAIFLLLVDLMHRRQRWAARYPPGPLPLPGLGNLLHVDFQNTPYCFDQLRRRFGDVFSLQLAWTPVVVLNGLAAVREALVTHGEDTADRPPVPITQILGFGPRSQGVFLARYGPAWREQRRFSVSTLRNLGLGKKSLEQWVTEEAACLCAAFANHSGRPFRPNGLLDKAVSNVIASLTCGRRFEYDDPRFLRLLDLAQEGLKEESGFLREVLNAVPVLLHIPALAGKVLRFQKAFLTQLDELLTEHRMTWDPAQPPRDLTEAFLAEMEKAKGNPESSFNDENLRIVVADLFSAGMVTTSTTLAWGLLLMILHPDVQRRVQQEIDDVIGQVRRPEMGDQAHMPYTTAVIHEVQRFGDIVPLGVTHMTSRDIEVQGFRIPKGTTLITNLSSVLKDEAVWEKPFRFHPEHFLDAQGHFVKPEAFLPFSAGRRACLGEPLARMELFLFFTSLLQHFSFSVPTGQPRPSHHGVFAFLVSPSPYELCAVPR

[19] = target: T5, Cytochrome P450 1A2 (Homo sapiens, UniProt P05177);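 note: PubChem cytochrome P450 panel assay, CYP1A2 panel member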
T5 sequence (P05177 whole entry): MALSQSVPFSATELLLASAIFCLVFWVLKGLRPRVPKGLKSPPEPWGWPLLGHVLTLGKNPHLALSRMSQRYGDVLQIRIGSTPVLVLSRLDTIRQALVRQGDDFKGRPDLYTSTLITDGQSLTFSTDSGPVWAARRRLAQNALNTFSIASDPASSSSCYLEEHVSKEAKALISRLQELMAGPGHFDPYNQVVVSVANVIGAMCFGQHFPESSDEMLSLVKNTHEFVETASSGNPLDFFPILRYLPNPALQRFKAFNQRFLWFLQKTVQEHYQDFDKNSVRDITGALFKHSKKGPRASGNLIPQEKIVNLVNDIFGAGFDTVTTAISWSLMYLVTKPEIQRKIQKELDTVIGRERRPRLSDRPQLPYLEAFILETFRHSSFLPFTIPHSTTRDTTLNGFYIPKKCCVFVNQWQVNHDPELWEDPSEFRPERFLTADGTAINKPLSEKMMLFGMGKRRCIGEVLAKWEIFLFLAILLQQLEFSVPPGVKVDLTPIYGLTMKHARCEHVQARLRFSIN

[20] = inhibitors of intracellular T. cruzi replication, confirmation, NIH3T3 host cells, beta-gal luminescence (AID 2044); format: functional, cell-based;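 note: intracellular parasites grown in NIH/3T3 mouse fibroblasts as host cells; luminescent beta-galactosidase reporter signal from transgenic T. cruzi replicating inside host cells; inhibitors lower the luminescence signal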
[21] = cytotoxicity toward NIH3T3 fibroblasts, dose response, counter-screen, cell-based, ATP luminescence, mouse fibroblasts (AID 2010); format: functional;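 note: cells exposed to compound for about 90 hours before reading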

Chain of FAD-linked sulfhydryl oxidase ALR (P55789 whole entry): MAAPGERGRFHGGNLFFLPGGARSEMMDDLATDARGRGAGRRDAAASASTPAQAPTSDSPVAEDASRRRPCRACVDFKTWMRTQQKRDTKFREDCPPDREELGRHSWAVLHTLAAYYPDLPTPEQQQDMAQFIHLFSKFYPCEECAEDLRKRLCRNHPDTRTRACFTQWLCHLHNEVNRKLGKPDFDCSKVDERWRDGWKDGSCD

SMILES: CCCc1cc(C(N)=O)c(NC(=O)c2ccoc2C)s1
- AC50 [1]: 2.74 µM (active)

SMILES: COc1cc2nc(S)n3nc(CCn4nc(C)cc4C)nc3c2cc1OC
- EC50 [2]: 28.4 µM (active)
- EC50 [3]: > 150 µM (not active)
- EC50 [4]: 14.5 µM (active)
- EC50 [5]: 25 µM (active)
- EC50 [6]: > 150 µM (not active)
- IC50 [7]: 23.2 µM (active)

SMILES: c1ccc(-n2ncc3c(N4CCCCC4)ncnc32)cc1
- AC50 [8]: 1.94 µM (active)
- AC50 [9]: 2.83 µM (active)

SMILES: Cc1nc(SCc2cccnc2)nc(O)c1C
- AC50 [1]: 1.18 µM (active)

SMILES: [O-][S+](c1ccc2ccccc2c1)c1cnns1 (stereo not drawn)
- AC50 [1]: 0.769 µM (active)

SMILES: COc1ccc(N2CCN(CCCNC(=O)C3CCCN(S(=O)(=O)c4c[nH]cn4)C3)CC2)cc1 (stereo not drawn)
- AC50 [1]: 25.4 µM (active)

SMILES: O=C1c2ccccc2C(=O)N1c1ncc(Cc2ccc(Cl)cc2)s1
- EC50 [10]: 2.43 µM (active)

SMILES: O=C(O)c1ccc(NC(=O)C2CCCCC2)cc1
- EC50 [10]: > 53 µM (inactive)

SMILES: CCCCCc1ccc(OCCCC[n+]2ccccc2)c(CCCCC)c1
- EC50 [11]: > 160 µM (inactive)
- EC50 [2]: 3.85 µM (active)
- EC50 [3]: 27.1 µM (active)
- EC50 [12]: < 0.03 µM (active)
- EC50 [6]: 8.33 µM (active)
- IC50 [13]: > 20 µM (inactive)
- AC50 [14]: 2.79 µM (active)

SMILES: O=C(Nc1ccc(OC(F)(F)F)cc1)c1ccc2c(c1)no[n+]2[O-]
- CC50 [15]: 20.6 µM (active)

SMILES: CC(=O)c1ccccc1OCC(O)CN1CCN(CCN2C(=O)c3cccc4cccc(c34)C2=O)CC1 (stereo not drawn)
- CC50 [16]: > 50 µM (active)
- IC50 [13]: > 20 µM (inactive)
- IC50 [17]: 23.1 µM (active)

SMILES: Cc1ccc(S(=O)(=O)NNC(=O)NC23CC4CC(CC(C4)C2)C3)cc1
- AC50 [1]: 1.02 µM (active)

SMILES: O=C(NC(=S)Nc1ccc(N2CCN(C(=O)c3ccccc3)CC2)cc1)c1cccs1
- IC50 [13]: > 20 µM (inactive)

SMILES: CN(C)CCNc1oc(COc2ccc(Cl)cc2Cl)nc1C#N
- IC50 [13]: > 20 µM (inactive)
- AC50 [18]: 14.1 µM (inconclusive)
- AC50 [19]: 25.1 µM (inconclusive)

SMILES: O=C(/C=C/c1ccco1)Nc1cccc(-c2nc3ccccc3[nH]2)c1
- EC50 [11]: > 150 µM (inactive)
- EC50 [12]: 1.86 µM (active)
- CC50 [15]: 30.8 µM (active)

SMILES: O=C(NCSc1ccncn1)c1ccccc1
- AC50 [1]: 1.49 µM (active)

SMILES: C#CCOCCOCCOCCNc1nc(N2CCN(C(=O)[C@H]([C@@H](C)CC)n3cc([C@@H](N)CC(C)C)nn3)CC2)nc(N2CCN(C(=O)[C@H]([C@@H](C)CC)n3cc([C@@H](N)CC(C)C)nn3)CC2)n1
- IC50 [13]: > 20 µM (inactive)

SMILES: Cc1ccc(OCCCC(=O)NNC(=O)c2ccccn2)cc1
- IC50 [13]: > 20 µM (inactive)

SMILES: OC(CNCC1CCCO1)Cn1c2ccc(Br)cc2c2cc(Br)ccc21 (stereo not drawn)
- EC50 [11]: 9.05 µM (inconclusive)
- EC50 [2]: 3.18 µM (active)
- EC50 [3]: 7.22 µM (active)
- EC50 [12]: > 38 µM (not active)
- EC50 [20]: 0.533 µM (active)
- EC50 [4]: 4.41 µM (active)
- EC50 [21]: > 60 µM (inconclusive)
- EC50 [5]: 4.46 µM (active)
- EC50 [6]: 8.12 µM (active)

SMILES: CC(=O)OC[C@H]1O[C@@H](O[C@@H]2C[C@H]3C(C)(C)[C@H](OC(C)=O)CC[C@]3(C)[C@H]3CC[C@]45C[C@]4(CC[C@H]5[C@@H](C)C[C@@H](O)[C@H](O)C(C)(C)O)[C@@]32C)[C@H](O)[C@@H](O)[C@@H]1O [CUMINGIANOSIDE A]
- CC50 [15]: 27.7 µM (active)
- EC50 [4]: 8.19 µM (active)
- EC50 [5]: 8.05 µM (active)
